Test system: M. smegmatis
Assay: Inhibition of macromolecular synthesis (radiolabeled precursor incorporation)
Type: cell-based, Mycobacterium smegmatis
Experimental: Inhibition of macromolecular biosynthesis was assayed by measuring the incorporation of radiolabeled precursors into DNA, RNA, protein, peptidoglycan, and fatty acids in the 10% trichloroacetic acid (TCA) extracts of cells exposed to azetidines. M. smegmatis were cultured in 7H9 media supplemented with 0.05% Tween-80 and grown to an OD600 of 0.4. Cultures (5 mL) were then transferred into sterile glass tubes and preincubated with 0× , 0.5× , 0.75× and 1 × MIC99 azetidines for 1 h at 37 °C with shaking. After preincubation, 10 μL of 500 nCi/μL [methyl-^3H]thymidine, 500 nCi/μL [5,6-^3H]uridine, 500 nCi/μL L-[4,5-^3H]leucine, 500 nCi/μL [^3H]meso-diaminopimelic acid, and 500 nCi/μL [^14C]acetic acid were added to cultures to measure synthesis of DNA, RNA, protein, peptidoglycan and lipids, respectively. All cultures were incubated for 36 h, and 100 μL samples were sacrificed at 6, 12, 24, and 36 h time points by the addition of 50 μL 30%TCA/70% ethanol in Eppendorf tubes. Tubes were incubated at room temperature for 60 min to allow for precipitation of macromolecular material. Samples were individually vacuum filtered using 0.025 μm membrane filters (VSWP01300, MF-Millipore) that were prewashed with 500 μL 70% ethanol. Samples were washed with 3 × 500 μL 5% TCA, followed by 2 × 95% ethanol. Filter papers were dried and combined with 5 mL of scintillation fluid before measuring radioactive counts.

## CNCC1CC(c2ccc(OC(F)(F)F)cc2)N1Cc1ccccc1OC(F)(F)F (stereo not shown) [BGAz-005]
0.5 × MIC
  loss of lipid biosynthesis ([14C]-acetic acid incorporation): ~50%
1 × MIC
  loss of lipid biosynthesis ([14C]-acetic acid incorporation): ~75%
  reduction of incorporation of [3H]-thymidine, [3H]-uridine, [3H]-leucine: 20%
Up to 0.75 × MIC
  effect on incorporation of [3H]-thymidine, [3H]-uridine, [3H]-leucine: almost no effect

Source: PMC10895678 (Journal of Medicinal Chemistry, 2024)
